According to patent US11191773B2, “Methods of treatment for bacterial infections” (President and Fellows of Harvard College, priority 2017, dated 2021):
≈ marks a conversion by molar mass, not a printed value.

Experiments:
[1] = tested on: polymyxin-resistant E. coli (clinical isolate from Brigham and Women's Hospital); assay type: cell-based; details: 37° C. for 24 h
Procedure: The effect of novobiocin/polymyxin combination was further assessed in polymyxin-resistant strains using checkerboard microdilution assays. In these assays, polymyxin-resistant strains (E. coli (clinical isolate from Brigham and Women's Hospital); A. baumannii (ATCC: 19606) mutant that is novobiocin and polymyxin-resistant; and K. pneumoniae (clinical isolate from Brigham and Women's Hospital)) were grown at 37° C. for 24 h.

IptFG(ch) mutant = experiment: Rescue of growth of coupling helix mutant (plating and disk assays); assay type: cell-based, E. coli
Procedure: FIG. 8B is a series of pictures of bacterial overnight cultures grown in minimal medium. The cultures were serially diluted ten-fold and spotted onto LB agar plates with and without compounds.
FIG. 15 is a picture of bacterial lawns grown on plates in the presence of disks containing antibiotics. […] Strains were grown overnight in minimal media and then plated on LB plates. Each disk contained 5 μg compound.
The coupling helices in LptFG each contain a strictly-conserved glutamate, and changing both glutamates to alanine (IptFG(ch)) causes a lethal loss of function (FIG. 8B, LB panel). […] Because novobiocin also contacts R91 (FIG. 7C), we speculated that it might rescue growth of IptFG(ch) by masking the charge. […] We conclude that novobiocin suppresses Lpt defects in vivo by interacting with LptB at R91; therefore, novobiocin interacts with LptB in cells in a similar manner to that observed in the crystal structure.
Disk diffusion assays were performed as described in Sherman et al., Proc. Natl. Acad. Sci. USA 2014, 111, 4982-4987. Premade Sensi-Disc (BD-Beckton, Dickinson and Company) were used for bacitracin 10IU, erythromycin 15 μg, novobiocin 30 μg, and rifampin 5 μg.
Efficiency of plating assays were performed on indicated media using the method described in Butler et al., J. Bacteriol. 2013, 195, 4639-4649.

ΔtolC = experiment: Minimum inhibitory concentration assay; assay type: cell-based, E. coli; details: Escherichia coli, 15 h, read-out: Minimum inhibitory concentration
Procedure: (§1) We wondered whether it would be possible to separate novobiocin's ability to suppress the IptFG(ch) defects in vivo from its activity against DNA gyrase, its presumed primary target. […] Minimum inhibitory concentrations were measured after a 15-hr incubation period at 37° C.
(§2) Overnight cultures were prepared by transferring 5 mL of sterile LB Miller media to culture tubes and inoculating with the corresponding organism. The tubes were allowed to shake at 220 rpm, 37° C. overnight. 15 μL of overnight culture was diluted in 15 mL of LB Miller in a Falcon tube and was vortexed to mix. In a 96-well plate, 100 μL of diluted culture was added to each well. To column #1, an additional 100 μL of diluted culture and test compound was added (93.7 μL culture+6.35 μL 10 mg/mL novobiocin) or (94.2 μL culture+5.87 μL 10 mg/mL 1-adamantyl-novobiocin) such that the highest concentration tested was 500 μM. Transferred 100 μL from column #1 into column #2, etc, and mixed each time thoroughly. Repeated serial dilution until column #11. Incubated the plate at 37° C. overnight (˜16 h) and read the turbidity (OD600) using a Spectramax 384 plus plate reader (Molecular Devices).

wild type = experiment: Minimum inhibitory concentration assay; assay type: cell-based, E. coli; details: Escherichia coli, 15 h, read-out: Minimum inhibitory concentration
Procedure: as §1, §2

lptB1 = experiment: Minimum inhibitory concentration assay; assay type: cell-based, E. coli; details: Escherichia coli, 15 h, read-out: Minimum inhibitory concentration
Procedure: as §1, §2

wild-type A. baumannii = experiment: Checkerboard microdilution assay with PMB, PMBN, novobiocin, novobiocin aglycone; assay type: cell-based

## CO[C@@H]1[C@@H](OC(N)=O)[C@@H](O)[C@H](Oc2ccc3c(O)c(NC(=O)c4ccc(O)c(CC=C(C)C)c4)c(=O)oc3c2C)OC1(C)C [Novobiocin, novobiocin]
[1]
  synergy with polymyxin B: synergizes with polymyxin B
IptFG(ch) mutant; disks on LB plates, each disk 5 μg compound (FIG. 15)
  suppression of lethality of IptFG(ch): suppressed the lethality of IptFG(ch)
IptFG(ch) mutant; serial dilutions spotted onto LB agar plates with compound (FIG. 8B)
  rescue of growth of IptFG(ch): enables the IptFG(ch) mutant to grow
ΔtolC
  MIC: 2 µM (≈ 1.23 µg/mL)
Wild type
  MIC: 62.5 to 125 µM (≈ 38.3 to 76.6 µg/mL)
lptB1
  MIC: < 0.5 µM
wild-type A. baumannii
  synergy with PMBN: exhibits synergy
